The values below come from US12606541B2, “PPARg modulators and methods of use” (Eisai R&D Management Co., Ltd., priority 2020, dated 2026).

One experiment deals with UM-UC-9 engineered cells. Kind of experiment: Cell proliferation / short-term viability assay, CellTiter-Glo 144 h. The following applies: read-out: CTGlo 144 h UMUC9.5, G150. The class given is cell-based, human. On the procedure: Cell Seeding for Proliferation Assay
UM-UC-9 engineered cells were cultured in Dulbecco's Modified Eagle Medium (DMEM) supplemented with 10% FBS, 25 mM glucose (high glucose), 4.0 mM L-glutamine, 2.0 mM GlutaMAX™, 1.0 mM pyruvate, 1.0% non-essential amino acids (NEAA) in a 95% humidified incubator at 37° C. with 5% CO2. Cell banks of UM-UC-9 engineered assay-ready cells (ARCs) were prepared from a very active growth stage. Vials of ARCs containing approximately 5×10^6 cells per vial were stored in liquid nitrogen vapor phase cryostorage until use.
For making assay plates, ARCs were recovered from cryostorage, strained in a […] cell strainer, verified for cell viability >90% and counted using a cell counter (Cellometer Auto 1000, Nexelom). Each cell line was seeded into 384-well plates (50 μl/well) using DMEM medium at a density previously determined to be in log growth phase 7 days post-seeding (500 cells/well) using a bulk reagent dispenser (Multidrop™ Combi, Thermo Scientific) with a large-bore plastic-tip cassette pre-sanitized with 70% ethanol. One plate of cells was designated as the pretreatment time-zero (T0) control. Freshly seeded plates were allowed to sit lidded for 30 minutes within a biosafety cabinet for cells to settle distributed within the plate wells uniformly and then placed into an automated incubator (STX110, Liconic) at 37° C., 5% CO2, and 95% relative humidity.
Preparation of Test Compound in Assay-Ready Plate
Compounds were stored in a low-temperature sample archive as 10 mM dimethyl sulfoxide (DMSO) solutions at −20° C. under reduced humidity (−45° C. dew point) and protected from light. All samples in the automated archive are stored in 2D barcoded polypropylene tubes, tracked through a laboratory information management system (LIMS), and have been verified for identity and purity by NMR (Chemistry, H3 Biomedicine) and by LCMS (Analytical Chemistry, H3 Biomedicine) at the time of sample registration. Identity by mass matching and purity are again verified at the time of sample request fulfillment by redundant LCMS methods (acidic and basic separation protocols; Analytical Chemistry, H3 Biomedicine). Samples retrieved from low-temperature archive storage were solubilized by heated sonication (Bransonic® Ultrasonic Bath, Branson), transferred (Microlab Starlet, Hamilton) and serially-diluted (Viaflo Assist, Integra) by low-volume liquid handlers, and tracked in LIMS by automation log files to create a ID barcoded master dose-response plate (MDR) to serve as a standard source for all assay-ready plates (ARP) used within an experiment. ARPs prepared by acoustic transfer (ATS-100, EDC) of nL volumes from the MDR source were heat-sealed (PlateLoc, Agilent) and stored at −20° C. prior to use (<7 days from production). Tracking of liquid transfers via acoustic dispenser log files were used to update the LIMS system for all ARP plate maps.
Measurement of Pretreatment Control Cells and Sample Anti-Proliferative Effects on Treated Cells
On day 0 (pretreatment cells) or day 7 (treated cells), a cell proliferation assay was performed using an automated robotic assay platform (ACell, High-Res Biosolutions). Cell ARP's were removed from incubation, their plate lid discarded, and using a bulk reagent dispenser (Multidrop™ Combi, Thermo Scientific with a small-bore metal-tip cassette) 25 μL (1/2 volume) of Cell Titer-Glo® 2.0 Cell Viability Assay reagent (Promega) was added to wells of columns 1-23 (column 24 will be used as plate background or positive control). Cell ARP's were incubated at room temperature in an automation hotel position for a total of 1.0 minute while the next plate was delivered to the bulk reagent dispenser and then lid-free cell ARP's were returned to incubate at 37° C. for 2.5 hours. […]
(In general: Cellular ATP, detected with luciferase, serves as a proxy for viable cell number.)

The target in another experiment is T1, His6-TEV-PPARγ-(234-505) (Homo sapiens, UniProt P37231).
T1 construct: The His6-TEV-PPARγ-(234-505) protein for assay was expressed and purified; TEV cleavage site (N); made in house
T1 sequence (P37231 234-505): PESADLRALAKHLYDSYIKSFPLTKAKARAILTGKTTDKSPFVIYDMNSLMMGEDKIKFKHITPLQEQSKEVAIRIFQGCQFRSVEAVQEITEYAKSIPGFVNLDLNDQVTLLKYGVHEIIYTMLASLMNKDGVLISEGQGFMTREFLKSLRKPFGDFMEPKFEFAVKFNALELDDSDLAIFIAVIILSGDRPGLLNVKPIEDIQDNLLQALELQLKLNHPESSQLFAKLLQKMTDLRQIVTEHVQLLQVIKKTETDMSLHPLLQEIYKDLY
As to the kind of experiment: TR-FRET Assay to Measure Co-R Peptide Recruitment to PPARγ. The experiment is classed as biochemical. Conditions: Co-R peptide (SMRT-ID2) recruitment, top final concentration 20 μM, read-out: TR-FRET i-Ag, AC50. The procedure, abridged:
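His-tagged PPARγ (or controls) was preincubated with compound for 20 minutes at room temperature, then 5 nM anti-His terbium antibody and 200 nM FITC-labeled SMRT-ID2 corepressor peptide (final) were added for a further hour. TR-FRET signal was normalized to percent response using 500 nM T0070907 and DMSO controls.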

Each structure is given as a SMILES string. Where two headings read alike, the source gives them in different places.

As to `COc1cc(-c2cc(C(=O)N3CCC(C(=O)NC4CCC(C)CC4)CC3)n[nH]2)c(F)cn1` (single isomer, unassigned) [Example 114-A], in the experiment with UM-UC-9 engineered cells (listed as 114a), the IC50 worked out at 4.43 µM. Further, the AC50 on His6-TEV-PPARγ-(234-505) (listed as 114a) amounted to 3.47 µM.
As to `COc1cc(-c2cc(C(=O)N3CCC(C(=O)NCC4CCn5cncc5C4)CC34CC4)n[nH]2)c(F)cn1` (single isomer, unassigned) [Example 342-B], the IC50 in the experiment with UM-UC-9 engineered cells is 0.682 µM. Moreover, on His6-TEV-PPARγ-(234-505), the AC50 was found to be 0.0428 µM.
For `COc1cc(-c2cc(C(=O)N3CCC(C(=O)Nc4cnn(CC(F)(F)F)c4)CC3)n[nH]2)c(Cl)cn1` [Example 126, 1-(5-(5-chloro-2-methoxypyridin-4-yl)-1H-pyrazole-3-carbonyl)-N-(1-(2,2,2-trifluoroethyl)-1H-pyrazol-4-yl)piperidine-4-carboxamide], the IC50 in the experiment with UM-UC-9 engineered cells (Homo sapiens, UM-UC-9, 144 h) stood at 2.46 µM. For the same compound, on His6-TEV-PPARγ-(234-505), the AC50 is 0.707 µM.
With `COc1cc(-c2cc(C(=O)N3CC[C@H](C(=O)NC4CCN(CC5(O)COC5)C4)CC34CC4)n[nH]2)c(F)cn1` (single isomer, unassigned) [Example 454-A], the IC50 with UM-UC-9 engineered cells was found to be 1.79 µM. Moreover, on His6-TEV-PPARγ-(234-505), the AC50 turned out to be 0.0887 µM.
Taken in the same sequence, the figures for `COc1cc(-c2cc(C(=O)N3CCC(C(=O)NC4CCC(O)(C(F)(F)F)C(O)C4)CC34CC4)n[nH]2)c(F)cn1` (mixture of isomers) [Example 474-A] were 6.21 µM and 0.336 µM.
Taken in the same sequence, the figures for `COc1cc(-c2cc(C(=O)N3CC[C@H](C(=O)NCc4ncc(N5CC6CC5CN6)cc4Cl)CC34CC4)n[nH]2)c(F)cn1` (single isomer, unassigned) [Example 462-A] were 0.551 µM and 0.0225 µM.
For `COc1cc(-c2[nH]nc(C(=O)N3CCC(C(=O)NC4CCC(C)CC4)CC3)c2Cl)ccn1` (single isomer, unassigned) [Example 110-A], in the experiment with UM-UC-9 engineered cells (listed as 110a), the IC50 came to 3.19 µM. In addition, on His6-TEV-PPARγ-(234-505) (listed as 110a), the AC50 is 2.16 µM.
As for `COc1cc(-c2cc(C(=O)N3CC[C@H](C(=O)N[C@H]4CC[C@@](O)(C(F)(F)F)CC4)CC34CCC4)n[nH]2)c(F)cn1` (racemic) [Example 486, (S)-5-(5-(5-fluoro-2-methoxypyridin-4-yl)-1H-pyrazole-3-carbonyl)-N-((1r,4S)-4-hydroxy-4-(trifluoromethyl)cyclohexyl)-5-azaspiro[3.5]nonane-8-carboxamide and (R)-5-(5-(5-fluoro-2-methoxypyridin-4-yl)-1H-pyrazole-3-carbonyl)-N-((1r,4R)-4-hydroxy-4-(trifluoromethyl)cyclohexyl)-5-azaspiro[3.5]nonane-8-carboxamide], the IC50 with UM-UC-9 engineered cells (Homo sapiens, UM-UC-9, 144 h) came to 0.0445 µM. The AC50 at His6-TEV-PPARγ-(234-505) came to 0.0052 µM.
Regarding `COc1cc(-c2cc(C(=O)N3[C@@H]4CC[C@H]3C[C@H](C(=O)NC3CCC5(CC3)OCCC5(F)F)C4)n[nH]2)c(F)cn1` (mixture of isomers) [Example 320, (1R,3s,5S)—N-(4,4-difluoro-1-oxaspiro[4.5]decan-8-yl)-8-(5-(5-fluoro-2-methoxypyridin-4-yl)-1H-pyrazole-3-carbonyl)-8-azabicyclo[3.2.1]octane-3-carboxamide], in the experiment with UM-UC-9 engineered cells (Homo sapiens, UM-UC-9, 144 h), the IC50 turned out to be 0.0295 µM. For the same compound, the AC50 at His6-TEV-PPARγ-(234-505) stood at 0.0104 µM.
Consider `COc1cc(-c2cc(C(=O)N3CCC(C(=O)Nc4c(F)ccc5ccnn45)CC34CC4)n[nH]2)c(F)cn1` (racemic) [Example 468, (R)-4-(5-(5-fluoro-2-methoxypyridin-4-yl)-1H-pyrazole-3-carbonyl)-N-(6-fluoropyrazolo[1,5-a]pyridin-7-yl)-4-azaspiro[2.5]octane-7-carboxamide and (S)-4-(5-(5-fluoro-2-methoxypyridin-4-yl)-1H-pyrazole-3-carbonyl)-N-(6-fluoropyrazolo[1,5-a]pyridin-7-yl)-4-azaspiro[2.5]octane-7-carboxamide], for which the IC50 with UM-UC-9 engineered cells was found to be 0.08 µM. In addition, the AC50 at His6-TEV-PPARγ-(234-505) is 0.0083 µM.
As for `COc1cc(-c2cc(C(=O)N3CCC(C(=O)NC4CCCC(O)(C(F)(F)F)C4)CC34CC4)n[nH]2)c(F)cn1` (mixture of isomers) [Example 524], the IC50 in the experiment with UM-UC-9 engineered cells amounted to 0.341 µM. Further, on His6-TEV-PPARγ-(234-505), the AC50 was found to be 0.128 µM.
`COc1cc(-c2cc(C(=O)N3CCC(C(=O)Nc4cccc(C(F)F)c4)CC3)n[nH]2)c(Cl)cn1` [Example 147, 1-(5-(5-chloro-2-methoxypyridin-4-yl)-1H-pyrazole-3-carbonyl)-N-(3-(difluoromethyl)phenyl)piperidine-4-carboxamide]: the IC50 in the experiment on UM-UC-9 engineered cells (Homo sapiens, UM-UC-9, 144 h) came to 0.955 µM. The AC50 at His6-TEV-PPARγ-(234-505) turned out to be 0.268 µM.
Take `COc1cc(-c2cc(C(=O)N3CCC(C(=O)NCc4cn5c(C)cccc5n4)CC3)n[nH]2)c(Cl)cn1` [Example 210, 1-(5-(5-chloro-2-methoxypyridin-4-yl)-1H-pyrazole-3-carbonyl)-N-((5-methylimidazo[1,2-a]pyridin-2-yl)methyl)piperidine-4-carboxamide]: the IC50 in the experiment on UM-UC-9 engineered cells (Homo sapiens, UM-UC-9, 144 h) was found to be 1.68 µM. Further, the AC50 at His6-TEV-PPARγ-(234-505) was 0.259 µM.
Taken in the same sequence, the figures for `Cc1cc(-c2cc(C(=O)N3CCC(C(=O)NCc4ccc5[nH]ccc5c4)CC3)n[nH]2)c(F)cn1` [Example 271, 1-[5-(5-fluoro-2-methylpyridin-4-yl)-1H-pyrazole-3-carbonyl]-N-(1H-indol-5-ylmethyl)piperidine-4-carboxamide] were 0.0303 µM and 0.0061 µM.
Take `CCOC1(C(F)(F)F)CCC(NC(=O)[C@H]2CCN(C(=O)c3cc(-c4cc(C)ncn4)[nH]n3)C3(CC3)C2)CC1` (mixture of isomers) [Example 308-A, (S)—N-(4-ethoxy-4-(trifluoromethyl)cyclohexyl)-4-(5-(6-methylpyrimidin-4-yl)-1H-pyrazole-3-carbonyl)-4-azaspiro[2.5]octane-7-carboxamide]: the IC50 in the experiment on UM-UC-9 engineered cells (Homo sapiens, UM-UC-9, 144 h) was found to be 0.0056 µM. Also, the AC50 on His6-TEV-PPARγ-(234-505) was determined as 0.0028 µM.
On to `COc1cc(-c2cc(C(=O)N3CC[C@H](C(=O)NC(C)c4cn5c(n4)COCC5)CC34CC4)n[nH]2)c(F)cn1` (single isomer, unassigned) [Example 415-A], for which the IC50 in the experiment on UM-UC-9 engineered cells is 0.304 µM. For the same compound, on His6-TEV-PPARγ-(234-505), the AC50 amounted to 0.0881 µM.
Turning to `COc1cc(-c2cc(C(=O)N3CCC(C(=O)NC4COC(C)OC4)CC3)n[nH]2)c(Cl)cn1` (mixture of isomers) [Example 121, 1-[5-(5-Chloro-2-methoxypyridin-4-yl)-1H-pyrazole-3-carbonyl]-N-(2-methyl-1,3-dioxan-5-yl) piperidine-4-carboxamide], in the experiment with UM-UC-9 engineered cells (Homo sapiens, UM-UC-9, 144 h), the IC50 is 2.22 µM. Also, the AC50 at His6-TEV-PPARγ-(234-505) is 0.807 µM.
